The record followed here is PMC6911004, “Fragment-based screening identifies molecules targeting the substrate-binding ankyrin repeat domains of tankyrase” (Scientific Reports, 2019).

Holding throughout (assay type): binding
For test [1], the target named is T1, TNKS2 ARC1 (Homo sapiens, UniProt Q9H2K2).
T1 construct: TNKS2 ARC1 (20–178); His6-GST; made in house; host or cells: E. coli
T1 sequence (Q9H2K2 whole entry, looked up): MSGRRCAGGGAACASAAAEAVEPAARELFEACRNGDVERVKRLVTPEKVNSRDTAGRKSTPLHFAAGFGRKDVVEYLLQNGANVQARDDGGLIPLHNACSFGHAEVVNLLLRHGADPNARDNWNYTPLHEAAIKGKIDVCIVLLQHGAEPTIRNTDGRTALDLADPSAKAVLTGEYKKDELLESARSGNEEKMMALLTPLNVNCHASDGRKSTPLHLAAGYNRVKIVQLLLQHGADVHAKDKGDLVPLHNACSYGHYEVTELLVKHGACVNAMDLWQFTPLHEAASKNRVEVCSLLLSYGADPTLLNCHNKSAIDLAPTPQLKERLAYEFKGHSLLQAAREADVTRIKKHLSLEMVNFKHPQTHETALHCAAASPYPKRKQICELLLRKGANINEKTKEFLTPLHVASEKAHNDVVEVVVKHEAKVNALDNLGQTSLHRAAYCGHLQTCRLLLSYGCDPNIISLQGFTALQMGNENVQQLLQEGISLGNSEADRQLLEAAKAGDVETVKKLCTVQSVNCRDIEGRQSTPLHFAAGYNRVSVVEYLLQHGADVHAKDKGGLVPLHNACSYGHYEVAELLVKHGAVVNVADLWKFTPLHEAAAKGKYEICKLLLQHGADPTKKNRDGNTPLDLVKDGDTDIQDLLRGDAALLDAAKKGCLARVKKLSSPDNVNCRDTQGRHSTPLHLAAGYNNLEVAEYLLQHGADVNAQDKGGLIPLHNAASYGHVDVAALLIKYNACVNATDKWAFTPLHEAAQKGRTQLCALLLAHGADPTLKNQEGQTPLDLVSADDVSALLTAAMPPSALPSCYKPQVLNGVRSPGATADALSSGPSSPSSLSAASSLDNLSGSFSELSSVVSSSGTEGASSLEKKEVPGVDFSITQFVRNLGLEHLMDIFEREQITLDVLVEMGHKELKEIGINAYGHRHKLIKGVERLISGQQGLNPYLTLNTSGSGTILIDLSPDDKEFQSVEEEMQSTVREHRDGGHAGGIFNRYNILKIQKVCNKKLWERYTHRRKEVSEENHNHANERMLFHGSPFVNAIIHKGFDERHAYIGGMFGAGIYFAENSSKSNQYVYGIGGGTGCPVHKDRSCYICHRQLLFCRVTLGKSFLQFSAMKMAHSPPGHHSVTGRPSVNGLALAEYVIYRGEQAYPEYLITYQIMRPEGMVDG
The test is described as follows: Differential scanning fluorimetry (DSF). The following applies: ARC 20 μM + 3BP2 TBM peptide 200 μM, inflection point method. On the procedure:
For the experiment shown in Fig. 2A, ARC and 3BP2 TBM peptide concentrations were 20 and 200 μM, respectively, in 50 mM HEPES-NaOH pH 7.5, 100 mM NaCl, 2 mM TCEP and a total volume of 25 μL. SYPRO Orange was added at 5×. Data were recorded from 4–95 °C, with the temperature ramped by 0.5 °C every 15 s, using a CFX384 thermal cycler (Bio-Rad). Data were analysed by non-linear regression in GraphPad Prism using a Boltzmann sigmoid with linear baselines. ΔTm values were determined using the inflection point method.
(In DSF a fluorescence change marks the thermal transition of the protein.)

Test [2] has as its target T2, TNKS2 ARC1 (20–178) (Homo sapiens, UniProt Q9H2K2).
T2 construct: TNKS2 ARC1 (20–178); His6-GST; made in house; host or cells: E. coli
The test is described as follows: T2 relaxation-edited ligand-observed NMR assay. From the text: The anticipated functional redundancy between ARCs and the existence of two tankyrase paralogues will require efficient substrate binding antagonists to ideally bind all TBM-binding ARCs of both TNKS and TNKS2. […] We tested binding of compound 9 to all TNKS and TNKS2 ARCs using the relaxation-edited NMR assay (Fig. 4E, Table 3). Compound 9 bound all ARCs, with the exception of TNKS2 ARC1. Given the invariant residue infrastructure of the peptide-binding pocket in ARC1 of TNKS and TNKS2, this observation is difficult to reconcile with available structural information. […]
Fragments were dispensed in duplicate into a 384-well plate (250 nL, 100 mM stock in DMSO). […] Solutions were transferred to 1.7 mm NMR tubes using a Gilson liquid handling system. ^1H NMR spectra were recorded, with the DMSO and water signals dampened. […] The average integral for all peaks between 6.0–10.0 ppm was calculated, and the difference between compound-only and compound-plus-protein samples was compared. […] For competitive experiments, 3BP2 16-mer peptide (100 μM) was added, and the spectra were recorded and processed as above. The variability in signal reduction in the relaxation-edited experiment was previously determined as approximately ± 10% (Liu et al., unpublished observations).

Test [3] addresses T3, TNKS ARC5 (799–958) (Homo sapiens, UniProt O95271).
T3 construct: TNKS ARC5 (799–958); His6-GST; made in house; host or cells: E. coli
In words: WaterLOGSY NMR assay. On the procedure:
(§1) Fragments were dispensed in duplicate into a 384-well plate (250 nL, 100 mM stock in DMSO). Wells were backfilled with DMSO (2.25 μL). Tankyrase ARC protein (47.5 μL in 25 mM HEPES-NaOH pH7.5, 100 mM NaCl, 2 mM TCEP, 10% D2O; 20 μM final protein concentration in the assay) was added to the samples containing protein; buffer only (47.5 μL) was added to the compound-only samples. Solutions were transferred to 1.7 mm NMR tubes using a Gilson liquid handling system. ^1H NMR spectra were recorded, with the DMSO signal dampened. The bulk water signal at 4.7 ppm was selectively inverted. Data were processed using Bruker Topspin 3.14[66].

In test [4] the target is T2, TNKS2 ARC1 (20–178). The test is described as follows: WaterLOGSY NMR assay. On the procedure: as §1

T3 sequence (O95271 799-958): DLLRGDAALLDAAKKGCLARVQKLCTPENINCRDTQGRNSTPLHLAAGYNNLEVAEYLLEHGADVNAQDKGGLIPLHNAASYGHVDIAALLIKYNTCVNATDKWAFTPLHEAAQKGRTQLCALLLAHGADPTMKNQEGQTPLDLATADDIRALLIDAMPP

As to “LPHLQRSPPDGQSFRSW [3BP2 16-mer peptide, 16-mer TBM peptide derived from 3BP2, W added for A280, N-terminus acetylated, C-terminus amide-capped; positive control, reference compound]”, the ΔTm in test [1] came to 1.34 °C.

Turning to `O=C(NCc1ccco1)c1ccc2nccnc2c1` [compound 9], the “T2 relaxation-edited: reduction of signal integrals” value in test [2] came out at 0%. The waterLOGSY entry in test [3] is “negative NOE signal”; in test [4] it was “no NOE”.

One may read the ΔTm as the change in melting temperature against a reference sample.
